Assay results taken from the supplement of paper PMC10627819.

Legend:
S. pneumoniae D39V [1] = assay: fitness (endpoint OD595 vs no drug) (fraction); higher = more growth
How it was run: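 Fitness compares growth at the stationary-phase transition with the robust mean of no-drug control wells, as a ratio of optical densities. The ratio is capped at 1. Wells of 384-well plates held 30 µl, or 55 µl for S. pneumoniae, inoculated at OD595 0.01. Readings at OD595 every 30 min for 14 h at 37 °C were corrected against the first reading.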

B. subtilis 168 = assay: Bliss interaction score (quartile over a dose matrix) (fitness difference); higher = more antagonism (negative = synergy)
How it was run: (§1)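 Fitness was OD595 at entry into stationary phase divided by the plate's robust no-drug mean and capped at 1; single-drug fitness was inferred from combination data. The Bliss score is observed minus expected (product) fitness, summarised by quartiles over technical, biological and donor/recipient replicates.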

S. aureus DSM 20231 = assay: as above
How it was run: as §1

S. aureus Newman = assay: as above
How it was run: as §1

S. pneumoniae D39V [2] = assay: as above
How it was run: as §1
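For Bliss interaction score (quartile over a dose matrix) in this document: first quartile when negative (synergy) and third quartile when positive (antagonism).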

CC1(C)S[C@@H]2[C@H](NC(=O)[C@H](N)c3ccc(O)cc3)C(=O)N2[C@H]1C(=O)O [Amoxicillin] + CCC(C)C1C(=O)NC(=C)C(=O)NC(C(=O)NC(CSCC(C(=O)N1)NC(=O)/C(=C/C)/NC(=O)C(C(C)CC)N)C(=O)NC2C(SCC(NC(=O)CNC(=O)C3CCCN3C2=O)C(=O)NC(CCCCN)C(=O)NC4C(SCC(NC(=O)CNC(=O)C(NC(=O)C(NC(=O)C(NC(=O)CNC4=O)C)CC(C)C)CCSC)C(=O)NC(CC(=O)N)C(=O)NC(CCSC)C(=O)NC(CCCCN)C(=O)NC5C(SCC6C(=O)NC(C(=O)NC(CSC(C(C(=O)N6)NC(=O)C(NC5=O)C)C)C(=O)NC(CO)C(=O)NC(C(C)CC)C(=O)NC(CC7=CN=CN7)C(=O)NC(C(C)C)C(=O)NC(=C)C(=O)NC(CCCCN)C(=O)O)CC8=CN=CN8)C)C)C)CC(C)C [Nisin]
fitness, S. pneumoniae D39V [1], main component drawn
Conditions	partner 0.4275 µg/mL	partner 0.855 µg/mL	partner 1.6 µg/mL	partner 1.71 µg/mL	partner 3.2 µg/mL	partner 6.4 µg/mL
first compound 0.0008 µg/mL	≥ 1	0.534	–	0.106	–	–
first compound 0.0015 µg/mL	0.981	–	0.135	0.119	0.0433	0.0441
first compound 0.003 µg/mL	0.953	0.705	0.38	0.13	0.0777	0.0249

fitness, S. pneumoniae D39V [1], one replicate, main component drawn
Conditions	partner 1.6 µg/mL	partner 3.2 µg/mL	partner 6.4 µg/mL
first compound 0.0008 µg/mL	0.0458	0.094	0.0228
first compound 0.006 µg/mL	0.289	0.0544	0.0443

main component drawn
Conditions	Bliss interaction score
B. subtilis 168	-0.105
S. aureus DSM 20231	-0.111
S. aureus Newman	-0.0715
S. pneumoniae D39V [2]	0.09

CC1(C)S[C@@H]2[C@H](NC(=O)[C@H](N)c3ccc(O)cc3)C(=O)N2[C@H]1C(=O)O [Amoxicillin] + CC[C@H]1OC(=O)[C@H](C)[C@@H](O[C@H]2C[C@@](C)(OC)[C@@H](O)[C@H](C)O2)[C@H](C)[C@@H](O[C@@H]2O[C@H](C)C[C@H](N(C)C)[C@H]2O)[C@](C)(OC)C[C@@H](C)C(=O)[C@H](C)[C@@H](O)[C@]1(C)O [Clarithromycin]
fitness, S. pneumoniae D39V [1], one replicate
Conditions	partner 0.007812 µg/mL	partner 0.01562 µg/mL	partner 0.03125 µg/mL	partner 0.0625 µg/mL	partner 0.125 µg/mL	partner 0.25 µg/mL
first compound 0.0008 µg/mL	0.921	0.834	0.67	0.748	0.666	0.364
first compound 0.0015 µg/mL	0.844	0.836	0.633	–	–	–
first compound 0.003 µg/mL	0.789	0.772	0.546	–	–	–
first compound 0.006 µg/mL	–	–	–	0.436	0.303	0.149

fitness, S. pneumoniae D39V [1]
Conditions	partner 0.0625 µg/mL	partner 0.07 µg/mL	partner 0.125 µg/mL	partner 0.14 µg/mL	partner 0.25 µg/mL	partner 0.28 µg/mL
first compound 0.0008 µg/mL	–	0.212	–	0.157	–	0.0725
first compound 0.0015 µg/mL	0.681	0.24	0.567	0.133	0.366	0.0875
first compound 0.003 µg/mL	0.684	0.126	0.551	0.104	0.357	0.0502

Conditions	Bliss interaction score
B. subtilis 168	0.0461
S. aureus DSM 20231	-0.0818
S. aureus Newman	-0.0752
S. pneumoniae D39V [2]	0.177

CC1(C)S[C@@H]2[C@H](NC(=O)[C@H](N)c3ccc(O)cc3)C(=O)N2[C@H]1C(=O)O [Amoxicillin] + CN(C)C(=O)C(CCN1CCC(O)(c2ccc(Cl)cc2)CC1)(c1ccccc1)c1ccccc1 [Loperamide]
fitness, S. pneumoniae D39V [1]
Conditions	partner 17.14 µg/mL	partner 20 µg/mL	partner 34.28 µg/mL	partner 40 µg/mL	partner 80 µg/mL
first compound 0.0008 µg/mL	0.993	–	0.945	–	–
first compound 0.0015 µg/mL	0.977	≥ 1	0.935	≥ 1	≥ 1
first compound 0.003 µg/mL	0.868	0.999	0.839	0.994	0.991

fitness, S. pneumoniae D39V [1], one replicate
Conditions	first compound 0.0008 µg/mL	first compound 0.0015 µg/mL	first compound 0.003 µg/mL	first compound 0.006 µg/mL
partner 20 µg/mL	≥ 1	–	–	0.442
partner 40 µg/mL	≥ 1	–	–	0.448
partner 68.57 µg/mL	≥ 1	0.934	0.894	–
partner 80 µg/mL	≥ 1	–	–	0.212

Conditions	Bliss interaction score
B. subtilis 168	0.0397
S. aureus DSM 20231	-0.117
S. aureus Newman	0.0589
S. pneumoniae D39V [2]	0.0558

CC1(C)S[C@@H]2[C@H](NC(=O)[C@H](N)c3ccc(O)cc3)C(=O)N2[C@H]1C(=O)O [Amoxicillin] + CO[C@H]1/C=C/O[C@@]2(C)Oc3c(C)c(O)c4c(O)c(c(/C=N/N5CCN(C)CC5)c(O)c4c3C2=O)NC(=O)/C(C)=C\C=C\[C@H](C)[C@H](O)[C@@H](C)[C@@H](O)[C@@H](C)[C@H](OC(C)=O)[C@@H]1C [Rifampicin]
S. pneumoniae D39V [1], partner 0.025 µg/mL
Conditions	fitness
first compound 0.0008 µg/mL	0.925
first compound 0.0015 µg/mL	0.917
first compound 0.003 µg/mL	0.905

S. pneumoniae D39V [1], one replicate
Conditions	fitness
first compound 0.0008 µg/mL, partner 0.2 µg/mL	0
first compound 0.0015 µg/mL, partner 0.2 µg/mL	0
first compound 0.003 µg/mL, partner 0.2 µg/mL	0
first compound 0.006 µg/mL, partner 0.025 µg/mL	0.468
first compound 0.006 µg/mL, partner 0.05 µg/mL	0.546
first compound 0.006 µg/mL, partner 0.1 µg/mL	0.261

Conditions	Bliss interaction score
B. subtilis 168	0.0837
S. aureus DSM 20231	0.133
S. aureus Newman	0.073
S. pneumoniae D39V [2]	0.0783
